This assay concerns the target T1, h5-HT5A receptor (Homo sapiens, UniProt P47898).
T1 construct: expressed in transfected cells
Kind of assay: h5-HT5A-[3H]5-CT binding assay. As to conditions: membranes of HEK293 cells expressing h5-HT5A; 2.5 nM [3H]5-CT; read-out: Binding affinity 5-HT5A (Ki). On the procedure: 1. h5-HT5A-[^3H]5-CT Binding Assay
Membranes of HEK293 cells which permanently express the h5-HT5A receptor gene were incubated in 100 mM tris-HCl buffer (pH 7.7) containing 1 mM EDTA, in the presence of 2.5 nM [^3H]5-CT (total volume 600 μL). The total binding is defined as the binding that is observed when the membranes are incubated in the presence of only the radioligand. The inhibition induced by the compound is determined by incubation of cell membranes in the presence of the radioligand and various concentrations of the compound of interest. Nonspecific binding is defined as the [^3H]5-CT binding obtained by incubation of the membranes, the same as for the total binding, but in the presence of 10 μM methiothepine. Following incubation for 75 min at 30° C., the membrane suspension was filtered through a GF/B-Filter coated with 0.03% PEI, using a Skatron® harvesting system. The residual radioactivity in the filter was quantified by liquid scintillation counting.
Various concentrations of the test substances were used in both assays, and the Ki or IC50 values were determined.

Where a name gives a salt, the structure may show the parent alone.

T1 sequence (P47898 whole entry): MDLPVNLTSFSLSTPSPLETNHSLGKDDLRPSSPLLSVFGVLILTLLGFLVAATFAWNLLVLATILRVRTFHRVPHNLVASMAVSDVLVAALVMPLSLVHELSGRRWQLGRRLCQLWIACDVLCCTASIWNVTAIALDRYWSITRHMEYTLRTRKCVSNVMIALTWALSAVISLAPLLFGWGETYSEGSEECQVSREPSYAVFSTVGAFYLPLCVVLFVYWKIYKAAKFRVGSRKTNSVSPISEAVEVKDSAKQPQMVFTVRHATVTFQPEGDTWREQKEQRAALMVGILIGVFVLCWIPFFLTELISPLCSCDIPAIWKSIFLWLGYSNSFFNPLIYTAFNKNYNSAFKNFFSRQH

The term Ki denotes the equilibrium dissociation constant of an inhibitor or competing ligand from its target. Turning to `CCOC(=O)c1cc(-c2cn(Cc3ccccc3OC)c(N)n2)on1` [Example 30, 5-[2-Amino-1-(2-methoxybenzyl)-1H-imidazole-4-yl]isoxazole-3-carboxylic acid ethyl ester], the Ki is over 600 nM.
With `COc1ccccc1Cn1cc(-c2cccc(NS(=O)(=O)c3ccc(C(C)C)cc3)c2)nc1N` [Example 55, N-{3-[2-Amino-1-(2-methoxybenzyl)-1H-imidazole-4-yl]phenyl}-4-isopropylbenzenesulfonamide], the Ki was under 600 nM.
With `COc1ccccc1Cc1cn(-c2ccc(F)cc2)nc1N` [Example 7, 1-(4-Fluorophenyl)-4-(2-methoxybenzyl)-1H-pyrazole-3-ylamine], the Ki is over 600 nM.
With `COc1ccccc1Cn1cc(-c2ccc(NS(=O)(=O)c3ccccc3)cc2)nc1N` [Example 59, N-{4-[2-Amino-1-(2-methoxybenzyl)-1H-imidazole-4-yl]phenyl}benzenesulfonamide], the inhibition constant (Ki) is under 600 nM.
Then `COc1ccccc1Cn1cc(-c2cccc(NS(=O)(=O)c3ccccc3)c2)nc1N` [Example 56, N-{3-[2-Amino-1-(2-methoxybenzyl)-1H-imidazole-4-yl]phenyl}benzenesulfonamide], with under 600 nM; and `COc1ccccc1Cn1cc(-c2ccco2)nc1N` [Example 15, 4-Furan-2-yl-1-(2-methoxybenzyl)-1H-imidazole-2-ylamine hydrochloride], with under 600 nM.
Then `COc1ccccc1Cn1cc(-c2cc3ccccc3o2)nc1N` [Example 42, 4-Benzofuran-2-yl-1-(2-methoxybenzyl)-1H-imidazole-2-ylamine], with under 600 nM; and `COc1ccc(-n2cc(Cc3ccccc3OC)c(N)n2)cc1` [Example 6, 4-(2-Methoxybenzyl)-1-(4-methoxyphenyl)-1H-pyrazole-3-ylamine], with over 600 nM; and `COc1ccccc1Cn1cc(-c2csc(-c3ccccc3)n2)nc1N` [Example 47, 1-(2-Methoxybenzyl)-4-(2-phenylthiazole-4-yl)-1H-imidazole-2-ylamine], with under 600 nM.
To `COc1ccccc1Cn1cc(-c2cccs2)nc1N` [Example 13, 1-(2-Methoxybenzyl)-4-thiophene-2-yl-1H-imidazole-2-ylamine] belongs under 600 nM; to `COc1ccc(-c2cn(Cc3c(Cl)cccc3OC)c(N)n2)cc1` [Example 32, 1-(2-Chloro-6-methoxybenzyl)-4-(4-methoxyphenyl)-1H-imidazole-2-ylamine], under 600 nM; to `COc1cccc(OC)c1Cn1cc(-c2cc(C)cs2)nc1N` [Example 52, 1-(2,6-Dimethoxybenzyl)-4-(4-methylthiophene-2-yl)-1H-imidazole-2-ylamine], under 600 nM.
In the case of `COc1ccccc1Cn1cc(-c2cccnc2)nc1N` [Example 61, 1-(2-Methoxybenzyl)-4-pyridine-3-yl-1H-imidazole-2-ylamine], the inhibition constant Ki is under 600 nM.
With `COc1cccc(F)c1Cn1cc(-c2ccsc2)nc1N` [Example 31, 1-(2-Fluoro-6-methoxybenzyl)-4-thiophene-3-yl-1H-imidazole-2-ylamine], the Ki is under 600 nM.
For `COc1cccc(OC)c1Cn1cc(-c2ccccc2)nc1N` [Example 8, 1-(2,6-Dimethoxybenzyl)-4-phenyl-1H-imidazole-2-ylamine hydrochloride], the Ki is under 600 nM.
Then `COc1ccccc1Cn1cc(-c2ccc3ccccc3c2)nc1N` [Example 16, 1-(2-Methoxybenzyl)-4-naphthalene-2-yl-1H-imidazole-2-ylamine hydrochloride], with under 600 nM; and `COc1ccccc1Cn1cc(-c2cccc3ccccc23)nc1N` [Example 43, 1-(2-Methoxybenzyl)-4-naphthalene-1-yl-1H-imidazole-2-ylamine], with under 600 nM; and `COc1ccccc1Cn1cc(-c2ccccc2)nc1NC(C)=O` [Example 9, N-[1-(2-Methoxybenzyl)-4-phenyl-1H-imidazole-2-yl]acetamide], with over 600 nM.
Then `COc1ccc(-c2nc(Cc3ccccc3OC)c(N)[nH]2)cc1` [Example 62, 5-(2-Methoxybenzyl)-2-(4-methoxyphenyl)-3H-imidazole-4-ylamine hydrochloride], with over 600 nM.
For `COc1ccccc1Cn1cc(-c2ccc(OCc3ccccc3)cc2)nc1N` [Example 48, 4-(4-Benzyloxyphenyl)-1-(2-methoxybenzyl)-1H-imidazole-2-ylamine], the inhibitory constant (Ki) was under 600 nM.
To `COc1ccccc1Cn1cc(-c2nccs2)nc1N` [Example 49, 1-(2-Methoxybenzyl)-4-thiazole-2-yl-1H-imidazole-2-ylamine hydrochloride] belongs under 600 nM; to `COc1ccccc1Cn1nc(-c2ccccc2)nc1N` [Example 5, 2-(2-Methoxybenzyl)-5-phenyl-4H-[1,2,4]triazole-3-ylamine], over 600 nM.
Then `COc1ccccc1Cc1nc(-c2ccccc2)[nH]c1N` [Example 3, 5-(2-Methoxybenzyl)-2-phenyl-3H-imidazole-4-ylamine], with under 600 nM; and `COc1ccccc1Cn1cc(-c2ccccc2)nc1N` [Example 10, 1-(2-Methoxybenzyl)-4-phenyl-1H-imidazole-2-ylamine hydrochloride], with under 600 nM.
To `COc1cccc(Cl)c1Cn1cc(-c2cccs2)nc1N` [Example 37, 1-(2-Chloro-6-methoxybenzyl)-4-thiophene-2-yl-1H-imidazole-2-ylamine] belongs under 600 nM.
As to `COc1ccccc1Cn1cc(-c2cccc(NS(=O)(=O)c3cccs3)c2)nc1N` [Example 60, Thiophene-2-sulfonic acid {3-[2-amino-1-(2-methoxybenzyl)-1H-imidazole-4-yl]phenyl}amide], the Ki is under 600 nM.
To `COc1ccccc1Cn1cc(-c2ccc(N)cc2)nc1N` [Example 53, 4-(4-Aminophenyl)-1-(2-methoxybenzyl)-1H-imidazole-2-ylamine hydrochloride] belongs under 600 nM; to `COc1ccccc1Cn1cc(-c2cccc(NS(=O)(=O)c3ccc(-c4ccccc4)cc3)c2)nc1N` [Example 63, Biphenyl-4-sulfonic acid {3-[2-amino-1-(2-methoxybenzyl)-1H-imidazole-4-yl]phenyl}amide], under 600 nM.
As to `COc1cccc(Cl)c1Cn1cc(-c2ccc(Cl)cc2)nc1N` [Example 34, 1-(2-Chloro-6-methoxybenzyl)-4-(4-chlorophenyl)-1H-imidazole-2-ylamine], the Ki was under 600 nM.
To `COc1ccccc1Cn1cc(-c2cccc(NS(=O)(=O)C(C)C)c2)nc1N` [Example 64, Propane-2-sulfonic acid {3-[2-amino-1-(2-methoxybenzyl)-1H-imidazole-4-yl]phenyl}amide] belongs under 600 nM; to `COc1ccccc1Cn1cc(-c2ccc(C)s2)nc1N` [Example 38, 1-(2-Methoxybenzyl)-4-(5-methylthiophene-2-yl)-1H-imidazole-2-ylamine], under 600 nM; to `COc1ccccc1Cn1cc(-c2ccc(C)cc2)nc1N` [Example 27, 1-(2-Methoxybenzyl)-4-p-tolyl-1H-imidazole-2-ylamine], under 600 nM.
To `COc1cc([N+](=O)[O-])ccc1Cn1cc(-c2ccc(C#N)cc2)nc1N` [Example 54, 4-[2-Amino-1-(2-methoxy-4-nitrobenzyl)-1H-imidazole-4-yl]benzonitrile] belongs over 600 nM; to `COc1cccc(F)c1Cn1cc(-c2ccc(C#N)cc2)nc1N` [Example 33, 4-[2-Amino-1-(2-fluoro-6-methoxybenzyl)-1H-imidazole-4-yl]benzonitrile], under 600 nM; to `COc1cccc(OC)c1Cn1cc(-c2cccs2)nc1N` [Example 19, 1-(2,6-Dimethoxybenzyl)-4-thiophene-2-yl-1H-imidazole-2-ylamine], under 600 nM.
Then `COc1cccc(OC)c1Cn1cc(-c2ccc(F)cc2)nc1N` [Example 18, 1-(2,6-Dimethoxybenzyl)-4-(4-fluorophenyl)-1H-imidazole-2-ylamine], with under 600 nM; and `COc1ccccc1Cn1cc(-c2ccc(C(C)C)cc2)nc1N` [Example 39, 4-(4-Isopropylphenyl)-1-(2-methoxybenzyl)-1H-imidazole-2-ylamine], with under 600 nM; and `COc1ccccc1Cn1cc(-c2ccsc2)nc1N` [Example 20, 1-(2-Methoxybenzyl)-4-thiophene-3-yl-1H-imidazole-2-ylamine hydrochloride], with under 600 nM.
Turning to `COc1ccccc1Cn1cc(-c2ccc([N+](=O)[O-])cc2)nc1N` [Example 2, 1-(2-Methoxybenzyl)-4-(4-nitrophenyl)-1H-imidazole-2-ylamine], the inhibitory constant (Ki) is under 600 nM.
To `COc1ccccc1Cn1cc(-c2ccc(Oc3ccccc3)cc2)nc1N` [Example 44, 1-(2-Methoxybenzyl)-4-(4-phenoxyphenyl)-1H-imidazole-2-ylamine hydrochloride] belongs under 600 nM; to `COc1ccccc1Cn1c(Cc2ccccc2)cnc1N` [Example 41, 5-Benzyl-1-(2-methoxybenzyl)-1H-imidazole-2-ylamine], under 600 nM; to `COc1ccccc1Cn1cc(C23CC4CC(CC(C4)C2)C3)nc1N` [Example 24, 4-Adamantane-1-yl-1-(2-methoxybenzyl)-1H-imidazole-2-ylamine], under 600 nM.
With `COc1ccccc1Cn1cc(-c2cccc(N)c2)nc1N` [Example 51, 4-(3-Aminophenyl)-1-(2-methoxybenzyl)-1H-imidazole-2-ylamine], the inhibition constant Ki is under 600 nM.

These data come from patent publication US8921406B2, “5-ring heteroaromatic compounds and their use as binding partners for 5-HT5 receptors” (AbbVie Deutschland GmbH & Co. KG, priority 2005, dated 2014).
